Assay results from ChEMBL document CHEMBL3822432, “Antibacterial and anticancer activity of a series of novel peptides incorporating cyclic tetra-substituted C(α) amino acids” (Bioorg Med Chem, 2016).
Converted amounts (≈) assume the structure as drawn. Non-standard residues stand in square brackets, D forms with d. Residues, ends and D or L forms follow the SMILES beside them. Ac6c = NC1(C(=O)O)CCCCC1; Ac5c = NC1(C(=O)O)CCCC1

How the values were obtained:
[1] = test system: Acinetobacter baumannii; assay: Antibacterial activity against Acinetobacter baumannii B5W71 ATCC 15149 by two fold serial dilution method; format: functional
[2] = test system: Neisseria gonorrhoeae; assay: Antibacterial activity against Neisseria gonorrhoeae F-18 ATCC 49226 by two fold serial dilution method; format: functional
[3] = test system: RL; assay: Antiproliferative activity against human RL cells after 72 hrs by Celltiter-Glo luminescent cell viability assay; format: functional, cell-based
[4] = test system: Enterococcus faecalis; assay: Antibacterial activity against Enterococcus faecalis Portland ATCC 29212 by two fold serial dilution method; format: functional; details: ATCC 29212 Portland
[5] = test system: Burkholderia pseudomallei; assay: Antibacterial activity against Burkholderia pseudomallei AHS 1 NCTC 8016 by two fold serial dilution method; format: functional
[6] = Antiproliferative activity against human UACC62 cells after 72 hrs by Celltiter-Glo luminescent cell viability assay; format: functional, cell-based; details: UACC-62, 72 h
[7] = test system: MCF7; assay: Antiproliferative activity against human MCF7 cells after 72 hrs by Celltiter-Glo luminescent cell viability assay; format: functional, cell-based; details: MCF7, 72 h
[8] = Antiproliferative activity against human MIAPaCa2 cells after 72 hrs by Celltiter-Glo luminescent cell viability assay; format: functional, cell-based; details: MIA PaCa-2, 72 h
[9] = test system: NCI-H69; assay: Antiproliferative activity against human NCI-H69 cells after 72 hrs by Celltiter-Glo luminescent cell viability assay; format: functional, cell-based; details: NCI-H69, 72 h
[10] = test system: Streptococcus pneumoniae; assay: Antibacterial activity against Streptococcus pneumoniae 262 ATCC 49619 by two fold serial dilution method; format: functional
[11] = Antibacterial activity against Francisella tularensis SCHU S4 NR-643 by two fold serial dilution method; format: functional
[12] = Antiproliferative activity against human IGROV1 cells after 72 hrs by Celltiter-Glo luminescent cell viability assay; format: functional, cell-based; details: IGROV-1, 72 h
[13] = Antibacterial activity against Bacillus anthracis Ames NR-3838 by two fold serial dilution method; format: functional, Bacillus anthracis str. Ames
[14] = Antibacterial activity against Salmonella enterica LT2 Typhimurium ATCC 15277 by two fold serial dilution method; format: functional
[15] = test system: Klebsiella aerogenes; assay: Antibacterial activity against carbapenem-resistant Enterobacter aerogenes NCDC819-56 ATCC 13048 by two fold serial dilution method; format: functional
[16] = test system: Staphylococcus aureus; assay: Antibacterial activity against Staphylococcus aureus Seattle 1945 ATCC 25923 by two fold serial dilution method; format: functional
[17] = Antiproliferative activity against human DLD1 cells after 72 hrs by Celltiter-Glo luminescent cell viability assay; format: functional, cell-based; details: DLD-1, 72 h
[18] = test system: CFPAC-1; assay: Antiproliferative activity against human CFPAC-1 cells after 72 hrs by Celltiter-Glo luminescent cell viability assay; format: functional, cell-based; details: CFPAC-1, 72 h
[19] = test system: Staphylococcus aureus; assay: Antibacterial activity against methicillin-resistant Staphylococcus aureus USA 300 NRS 384 by two fold serial dilution method; format: functional
[20] = test system: A498; assay: Antiproliferative activity against human A498 cells after 72 hrs by Celltiter-Glo luminescent cell viability assay; format: functional, cell-based; details: A498, 72 h
[21] = Antibacterial activity against carbapenem-resistant Klebsiella pneumoniae K6 ATCC 700603 by two fold serial dilution method; format: functional, Klebsiella pneumoniae 700603
[22] = Antibacterial activity against Yersinia pestis CO92 NR641 by two fold serial dilution method; format: functional
[23] = test system: Pseudomonas aeruginosa; assay: Antibacterial activity against Pseudomonas aeruginosa Boston 41501 ATCC 27853 by two fold serial dilution method; format: functional
[24] = test system: A549; assay: Antiproliferative activity against human A549 cells after 72 hrs by Celltiter-Glo luminescent cell viability assay; format: functional, cell-based; details: A549, 72 h
[25] = Antiproliferative activity against human PC3 cells after 72 hrs by Celltiter-Glo luminescent cell viability assay; format: functional, cell-based; details: PC-3, 72 h
[26] = test system: Mycobacterium tuberculosis; assay: Antibacterial activity against Mycobacterium tuberculosis H37Ra ATCC 2517 by two fold serial dilution method; format: functional
[27] = Antibacterial activity against Clostridium difficile VIP 10463 ATCC 43255 by two fold serial dilution method; format: functional, Clostridium difficile ATCC 43255; details: Clostridioides difficile
[28] = Antiproliferative activity against human COLO205 cells after 72 hrs by Celltiter-Glo luminescent cell viability assay; format: functional, cell-based; details: COLO 205, 72 h

Structure (SMILES) | MIC [1] [µM] | MIC [2] [µM] | IC50 [3] [µM] | MIC [4] [µM] | MIC [5] [µM] | IC50 [6] [µM] | IC50 [7] [µM] | IC50 [8] [µM] | IC50 [9] [µM] | MIC [10] [µM] | MIC [11] [µM] | IC50 [12] [µM] | MIC [13] [µM] | MIC [14] [µM] | MIC [15] [µM] | MIC [16] [µM] | IC50 [17] [µM] | IC50 [18] [µM] | MIC [19] [µM] | IC50 [20] [µM] | also measured
CC(=O)NCC(=O)N[C@@H](Cc1ccccc1)C(=O)NC1(C(=O)NCC(=O)NC2(C(=O)N[C@@H](CCCCN)C(=O)NC3(C(=O)NCC(=O)NC4(C(=O)N[C@@H](Cc5ccccc5)C(=O)NC5(C(=O)NCC(=O)NC6(C(=O)NCC(=O)N[C@@H](CCCCN)C(=O)NC7(C(=O)N[C@@H](CCCCN)C(=O)N[C@@H](CCCCN)C(=O)N[C@@H](CCCCN)C(=O)N[C@@H](CCCCN)C(N)=O)CCCC7)CCCCC6)CCCC5)CCCCC4)CCCC3)CCCCC2)CCCC1 (Ac-GF[Ac5c]G[Ac6c]K[Ac5c]G[Ac6c]F[Ac5c]G[Ac6c]GK[Ac5c]KKKK-NH2) | > 45 | 11.2 (≈ 25 µg/mL) | 6.7 | > 45 | > 45 | > 7.5 | > 7.5 | > 7.5 | 5.9 | > 45 | 22.4 (≈ 49.9 µg/mL) | > 7.5 | 22.4 (≈ 49.9 µg/mL) | 11.2 (≈ 25 µg/mL) | > 45 | 44.5 (≈ 99.1 µg/mL) | > 7.5 | > 7.5 | > 45 | > 7.5 | MIC [21]: 44.8 µM (≈ 99.9 µg/mL); MIC [22]: > 45 µM; MIC [23]: 5.61 µM (≈ 12.5 µg/mL); IC50 [24]: > 7.5 µM; IC50 [25]: > 7.5 µM; MIC [26]: 22.4 µM (≈ 49.9 µg/mL); MIC [27]: 1.4 µM (≈ 3.12 µg/mL); IC50 [28]: > 7.5 µM
CC(=O)NCC(=O)N[C@@H](Cc1ccccc1)C(=O)NC1(C(=O)NCC(=O)NC2(C(=O)N[C@@H](CCCNC(=N)N)C(=O)NC3(C(=O)NCC(=O)NC4(C(=O)N[C@@H](Cc5ccccc5)C(=O)NC5(C(=O)NCC(=O)NC6(C(=O)NCC(=O)N[C@@H](CCCNC(=N)N)C(=O)NC7(C(=O)N[C@@H](CCCNC(=N)N)C(=O)N[C@@H](CCCNC(=N)N)C(=O)N[C@@H](CCCNC(=N)N)C(=O)N[C@@H](CCCNC(=N)N)C(N)=O)CCCC7)CCCC6)CCCC5)CCCC4)CCCC3)CCCC2)CCCC1 (Ac-GF[Ac5c]G[Ac5c]R[Ac5c]G[Ac5c]F[Ac5c]G[Ac5c]GR[Ac5c]RRRR-NH2) | 2.65 (≈ 6.24 µg/mL) | 5.31 (≈ 12.5 µg/mL) | 3.7 | 5.31 (≈ 12.5 µg/mL) | > 43 | > 7.5 | > 7.5 | > 7.5 | 7.1 | > 43 | 21.2 (≈ 49.9 µg/mL) | > 7.5 | 2.65 (≈ 6.24 µg/mL) | 42.4 (≈ 99.9 µg/mL) | > 42.4 | 2.65 (≈ 6.24 µg/mL) | > 7.5 | > 7.5 | 5.31 (≈ 12.5 µg/mL) | > 7.5 | MIC [21]: 5.31 µM (≈ 12.5 µg/mL); MIC [22]: > 43 µM; MIC [23]: 2.65 µM (≈ 6.24 µg/mL); IC50 [24]: > 7.5 µM; IC50 [25]: > 7.5 µM; MIC [26]: 21.2 µM (≈ 49.9 µg/mL); MIC [27]: 5.31 µM (≈ 12.5 µg/mL); IC50 [28]: > 7.5 µM
CC(=O)N[C@@H](CCCCN)C(=O)N[C@@H](CCCCN)C(=O)N[C@@H](CCCCN)C(=O)N[C@@H](CCCCN)C(=O)NCC(=O)N[C@@H](Cc1ccccc1)C(=O)NC1(C(=O)NCC(=O)NC2(C(=O)N[C@@H](CCCCN)C(=O)NC3(C(=O)NCC(=O)NC4(C(=O)N[C@@H](Cc5ccccc5)C(=O)NC5(C(=O)NCC(=O)NC6(C(=O)NCC(=O)N[C@@H](CCCCN)C(=O)NC7(C(N)=O)CCCCC7)CCCCC6)CCCCC5)CCCCC4)CCCCC3)CCCCC2)CCCCC1 (Ac-KKKKGF[Ac6c]G[Ac6c]K[Ac6c]G[Ac6c]F[Ac6c]G[Ac6c]GK[Ac6c]-NH2) | 2.73 (≈ 6.24 µg/mL) | 2.73 (≈ 6.24 µg/mL) | 3.7 | 21.9 (≈ 49.9 µg/mL) | > 44 | 6.4 | 7.3 | > 7.5 | 2.2 | 21.9 (≈ 49.9 µg/mL) | 21.9 (≈ 49.9 µg/mL) | > 7.5 | 1.37 (≈ 3.13 µg/mL) | 5.47 (≈ 12.5 µg/mL) | 43.8 (≈ 99.9 µg/mL) | 10.9 (≈ 25 µg/mL) | > 7.5 | > 7.5 | 43.8 (≈ 99.9 µg/mL) | 4.2 | MIC [21]: 43.8 µM (≈ 99.9 µg/mL); MIC [22]: > 44 µM; MIC [23]: 1.37 µM (≈ 3.13 µg/mL); IC50 [24]: 7.2 µM; IC50 [25]: > 7.5 µM; MIC [26]: 21.9 µM (≈ 49.9 µg/mL); MIC [27]: 1.37 µM (≈ 3.13 µg/mL); IC50 [28]: 6.7 µM
